Test results from patent US10179800B2, “Crystalline forms of S-[4-(3-fluoro-3-methylbutyryloxy)but-2-ynyl] 6-α,9-α-difluoro-17-α-(furan-2-yl)carbonyloxy-11-β-hydroxy-16-α-methyl-3-oxoandrosta-1,4-diene-17-β-carbothioate” (Sun Pharma Advanced Research Company Limited, priority 2015, dated 2019).

Experiment: Stability of the solid form upon storage
Type: physicochemical
Conditions: storage at ambient conditions

## C[C@@H]1CC2C3C[C@H](F)C4=CC(=O)C=C[C@]4(C)[C@@]3(F)[C@@H](O)C[C@]2(C)[C@@]1(OC(=O)c1ccco1)C(=O)SCC#CCOC(=O)CC(C)(C)F (stereo partly drawn) [amorphous form, S-[4-(3-fluoro-3-methylbutyryloxy)but-2-ynyl]6α,9α-difluoro-17α-(furan-2-yl)carbonyloxy-11β-hydroxy-16α-methyl-3-oxoandrosta-1,4-diene-17β-carbothioate]
  stability upon storage: unstable upon storage even at ambient conditions
